≈ marks a conversion by molar mass, not a printed value.
Assays:
P. aeruginosa ATCC 27853 = assay: MIC broth microdilution, P. aeruginosa ATCC 27853; format: cell-based; settings: for MIC: Pseudomonas aeruginosa, ATCC27853, P. aeruginosa ATCC 27853, contains aph(3′)-IIb, read-out: Geometric Mean MIC values, P. aeruginosa ATCC 27853
Method: (§1) Minimum inhibitory concentrations for the example compounds herein are determined by the broth microdilution method in accordance with the Clinical and Laboratory Standards Institute (CLSI) guidelines. In brief, organism suspensions are adjusted to a 0.5 McFarland standard to yield a final inoculum between 3×10^5 and 7×10^5 colony-forming units (CFU)/mL. Compound dilutions and inocula are made in sterile, cation adjusted Mueller-Hinton Broth (Beckton Dickinson). The inoculum is prepared by suspension of a colony from an agar plate that is prepared the previous day. Bacteria are suspended in sterile saline and added to each assay plate to obtain a final concentration of 5×10^5 CFU/mL. An inoculum volume of 100 μL is added to wells containing 100 μL of broth with 2-fold serial dilutions of the compound. All inoculated microdilution trays are incubated in ambient air at 35° C. for 18-24 hours. Following incubation, the lowest concentration of the compound that prevents visible growth (OD 600 nm<0.05) is recorded as the MIC. […] Performance of the assay is monitored by the use of laboratory quality-control strains and a compound with a defined MIC spectrum (such as levofloxacin), in accordance with CLSI guidelines. Compounds are tested against multiple microbiologic panels. Panels include: 1) a multi-species primary screening panel that includes multiple defined AG-R mechanisms; 2) a panel of isogenic strains carrying different common mechanisms of AG-R that allows characterization of the SAR for AMEs, RMTs, and entry and efflux resistance mechanisms; and 3) panels of recent clinical isolates selected from Phase 3 studies and ongoing global surveillance.

[1] = tested on: P. aeruginosa efflux parent; assay: MIC broth microdilution, P. aeruginosa efflux parent strain; format: cell-based; settings: for MIC: Pseudomonas aeruginosa, P. aeruginosa efflux parent strain, read-out: Geometric Mean MIC values, P. aeruginosa efflux parent
Method: as §1

[2] = tested on: P. aeruginosa Δefflux (MexAB-OprM, MexCD-OprJ, MexEF-OprN knocked out); assay: MIC broth microdilution, P. aeruginosa Δefflux strain; format: cell-based
Method: as §1

translation = assay: Translation Inhibition Assay; format: biochemical
Source text: Biological Example 2: Translation Inhibition Assay

E. coli ATCC 25922 = assay: Minimum inhibitory concentration (broth microdilution, CLSI), E. coli ATCC 25922; format: cell-based; settings: Table 1; geometric mean
Method: as §1

E. coli efflux parent = assay: MIC broth microdilution, E. coli efflux parent strain; format: cell-based; settings: Table 1; geometric mean
Method: as §1

[3] = tested on: E. coli Δefflux (tolC efflux pump knocked-out); assay: MIC broth microdilution, E. coli Δefflux strain (tolC knocked out); format: cell-based; settings: Table 1
Method: as §1

[4] = Table 2, strain contains aph(3′)-IIb
[5] = Table 2, MexEF-OprN efflux pumps knocked out
[6] = P. aeruginosa Δefflux, MexEF-OprN efflux pumps knocked out
[7] = Table 1, MexEF-OprN efflux pumps knocked out

Row | Structure (SMILES) | Geometric Mean MIC values, P. aeruginosa ATCC 27853 (P. aeruginosa ATCC 27853; [4]) [µg/mL] | Geometric Mean MIC values, P. aeruginosa efflux parent ([1]; Table 2) [µg/mL] | Geometric Mean MIC values, P. aeruginosa Δefflux [2, 5] [µg/mL] | IC50 (translation; Table 2) [nM] | other results
1 | CC(N)C1CCC(N)C(OC2C(N)CC(N)C(O)C2OC2OC(CO)C(OC3OC(CN)C(O)C(O)C3N)C2O)O1 (stereo not shown) [drawing 873] | 0.84 | 1.2 | 0.42 | 12 | –
2 | NC[C@@H]1O[C@H](O[C@H]2[C@@H](O)[C@H](O[C@@H]3[C@@H](O)[C@H](N)C[C@H](N)[C@H]3O[C@H]3O[C@H](CN)[C@@H](O)C(F)(F)[C@H]3N)O[C@@H]2CO)[C@H](N)[C@@H](O)[C@@H]1O | 4 | 8 | 1 | 62 | –
3 | CCC(N)C1CCC(N)C(OC2C(N)CC(N)C(O)C2OC2OC(CO)C(OC3OC(CN)C(O)C(O)C3N)C2O)O1 (stereo not shown) [drawing 877] | 1 | 2 | 0.5 | 26 | –
4 | NC[C@@H]1CC[C@@H](N)[C@@H](O[C@@H]2[C@@H](N)[C@H](O)[C@@H](N)[C@H](O)[C@H]2O[C@@H]2O[C@H](CO)[C@@H](O[C@H]3O[C@@H](CN)[C@@H](O)[C@H](O)[C@H]3N)[C@H]2O)O1 [drawing 890] | – | – | – | – | MIC (P. aeruginosa ATCC 27853): 0.5 µg/mL (≈ 0.835 µM); MIC [1]: 1 µg/mL (≈ 1.67 µM); Geometric Mean MIC values, P. aeruginosa Δefflux [2, 6]: 0.25 µg/mL; IC50 (translation; translation inhibition assay): 7.9 nM
5 | CO[C@@H]1[C@@H](O[C@@H]2O[C@H](CO)[C@@H](O[C@H]3O[C@@H](CN)[C@@H](O)[C@H](O)[C@H]3N)[C@H]2O)[C@H](O[C@H]2O[C@H](CN)CC[C@H]2N)[C@@H](N)C[C@H]1N [drawing 891] | – | – | – | – | MIC (P. aeruginosa ATCC 27853): 1 µg/mL (≈ 1.68 µM); MIC [1]: 1 µg/mL (≈ 1.68 µM); Geometric Mean MIC values, P. aeruginosa Δefflux [2, 6]: 0.25 µg/mL; IC50 (translation; translation inhibition assay): 5.7 nM
6 | CCC(N)C1CCC(N)C(OC2C(N)CC(N)C(O)C2OC2OC(CO)C(OC3OC(CN)C(O)C(O)C3N)C2O)O1 (stereo not shown) [drawing 851] | – | – | – | – | Geometric Mean MIC values, E. coli ATCC 25922 (E. coli ATCC 25922): 2 µg/mL; Geometric Mean MIC values, E. coli efflux parent (E. coli efflux parent): 2 µg/mL; Geometric Mean MIC values, E. coli Δefflux [3]: 1 µg/mL; Geometric Mean MIC values, P. aeruginosa ATCC 27853 (P. aeruginosa ATCC 27853; Table 1, geometric mean): 2 µg/mL; Geometric Mean MIC values, P. aeruginosa efflux parent ([1]; Table 1, geometric mean): 2 µg/mL; Geometric Mean MIC values, P. aeruginosa Δefflux [2, 7]: 0.5 µg/mL; IC50 (translation; Table 1): 32 nM
7 | NCC1OC(OC2C(CO)OC(OC3C(O)C(N)CC(N)C3OC3OC(C4(N)CC4)CCC3N)C2O)C(N)C(O)C1O (stereo not shown) [drawing 875] | 2 | 2 | 0.25 | 7.5 | –
8 | NCC1OC(OC2C(N)CC(N)C(O)C2OC2OC(CO)C(OC3OC(CN)C(O)C(O)C3N)C2O)C(N)CC1O (stereo not shown) [drawing 880, reference compound] | 0.25 | 0.5 | 0.25 | 8.5 | –
9 | NCC1CCC(N)C(OC2C(N)CC(N)C(O)C2OC2OC(CO)C(OC3OC(CN)C(O)C(O)C3N)C2O)O1 (stereo not shown) [drawing 872, reference compound] | 0.53 | 0.73 | 0.4 | 10 | –
10 | NC[C@@H]1O[C@H](O[C@H]2[C@@H](O)[C@H](O[C@@H]3[C@@H](O)[C@H](N)C[C@H](N)[C@H]3O[C@H]3O[C@H](CN)C(F)(F)[C@H](O)[C@H]3N)O[C@@H]2CO)[C@H](N)[C@@H](O)[C@@H]1O | 64 | 8 | 1 | 13 | –
11 | NCC1OC(OC2C(CO)OC(OC3C(O)C(N)CC(N)C3OC3OC(CN)C(O)C(F)C3N)C2O)C(N)C(O)C1O (stereo not shown) [drawing 882] | 1 | 2 | 0.5 | 10 | –
12 | CC(N)C1CCC(N)C(OC2C(N)CC(N)C(O)C2OC2OC(CO)C(OC3OC(CN)C(O)C(O)C3N)C2O)O1 (stereo not shown) [drawing 874] | 2 | 4 | 0.5 | 14 | –
13 | CC(N)C1CCC(N)C(OC2C(N)CC(N)C(O)C2OC2OC(CO)C(OC3OC(CN)C(O)C(O)C3N)C2O)O1 (stereo not shown) [drawing 850] | – | – | – | – | Geometric Mean MIC values, E. coli ATCC 25922 (E. coli ATCC 25922): 2.5 µg/mL; Geometric Mean MIC values, E. coli efflux parent (E. coli efflux parent): 1 µg/mL; Geometric Mean MIC values, E. coli Δefflux [3]: 1 µg/mL; Geometric Mean MIC values, P. aeruginosa ATCC 27853 (P. aeruginosa ATCC 27853; Table 1, geometric mean): 2 µg/mL; Geometric Mean MIC values, P. aeruginosa efflux parent ([1]; Table 1, geometric mean): 4 µg/mL; Geometric Mean MIC values, P. aeruginosa Δefflux [2, 7]: 0.5 µg/mL; IC50 (translation; Table 1): 14 nM
14 | NCC1CCC(N)C(OC2C(N)CC(N)C(O)C2OC2OC(CO)C(OC3OC(CN)C(O)C(O)C3N)C2O)O1 (stereo not shown) [drawing 848] | – | – | – | – | Geometric Mean MIC values, E. coli ATCC 25922 (E. coli ATCC 25922): 1.1 µg/mL; Geometric Mean MIC values, E. coli efflux parent (E. coli efflux parent): 1.4 µg/mL; Geometric Mean MIC values, E. coli Δefflux [3]: 1.4 µg/mL; Geometric Mean MIC values, P. aeruginosa ATCC 27853 (P. aeruginosa ATCC 27853; Table 1, geometric mean): 0.57 µg/mL; Geometric Mean MIC values, P. aeruginosa efflux parent ([1]; Table 1, geometric mean): 0.77 µg/mL; Geometric Mean MIC values, P. aeruginosa Δefflux [2, 7]: 0.5 µg/mL; IC50 (translation; Table 1): 13 nM
15 | NCC1OC(OC2C(CO)OC(OC3C(O)C(N)CC(N)C3OC3OC(CN)C(O)C(F)C3N)C2O)C(N)C(O)C1O (stereo not shown) [drawing 853] | – | – | – | – | Geometric Mean MIC values, E. coli ATCC 25922 (E. coli ATCC 25922): 2 µg/mL; Geometric Mean MIC values, E. coli efflux parent (E. coli efflux parent): 2 µg/mL; Geometric Mean MIC values, E. coli Δefflux [3]: 1 µg/mL; Geometric Mean MIC values, P. aeruginosa ATCC 27853 (P. aeruginosa ATCC 27853; Table 1, geometric mean): 1 µg/mL; Geometric Mean MIC values, P. aeruginosa efflux parent ([1]; Table 1, geometric mean): 2 µg/mL; Geometric Mean MIC values, P. aeruginosa Δefflux [2, 7]: 0.5 µg/mL; IC50 (translation; Table 1): 10 nM
16 | NC[C@@H]1O[C@H](O[C@H]2[C@@H](O)[C@H](O[C@@H]3[C@@H](O)[C@H](N)C[C@H](N)[C@H]3O[C@H]3O[C@H](CN)[C@H](O)[C@H](F)[C@H]3N)O[C@@H]2CO)[C@H](N)[C@@H](O)[C@@H]1O | 1 | 2 | 0.5 | 18 | –
17 | NCC1OC(OC2C(CO)OC(OC3C(O)C(N)CC(N)C3OC3OC(CN)C(O)C(F)C3O)C2O)C(N)C(O)C1O (stereo not shown) [drawing 883] | 2 | 4 | 0.5 | 24 | –
18 | NCC1OC(OC2C(CO)OC(OC3C(O)C(N)CC(N)C3OC3OC(CN)C(O)C(F)(F)C3N)C2O)C(N)C(O)C1O (stereo not shown) [drawing 854] | – | – | – | – | Geometric Mean MIC values, E. coli ATCC 25922 (E. coli ATCC 25922): 4 µg/mL; Geometric Mean MIC values, E. coli efflux parent (E. coli efflux parent): 4 µg/mL; Geometric Mean MIC values, E. coli Δefflux [3]: 2 µg/mL; Geometric Mean MIC values, P. aeruginosa ATCC 27853 (P. aeruginosa ATCC 27853; Table 1, geometric mean): 4 µg/mL; Geometric Mean MIC values, P. aeruginosa efflux parent ([1]; Table 1, geometric mean): 8 µg/mL; Geometric Mean MIC values, P. aeruginosa Δefflux [2, 7]: 1 µg/mL; IC50 (translation; Table 1): 63 nM
19 | CCC(N)C1CCC(N)C(OC2C(N)CC(N)C(O)C2OC2OC(CO)C(OC3OC(CN)C(O)C(O)C3N)C2O)O1 (stereo not shown) [drawing 876] | 1.4 | 2 | 0.5 | 32 | –
20 | NCC1OC(OC2C(CO)OC(OC3C(O)C(N)CC(N)C3OC3OC(CN)C(O)C(F)C3N)C2O)C(N)C(O)C1O (stereo not shown) [drawing 884] | 4 | 8 | 2 | 100 | –
21 | CC(N)C1CCC(N)C(OC2C(N)CC(N)C(O)C2OC2OC(CO)C(OC3OC(CN)C(O)C(O)C3N)C2O)O1 (stereo not shown) [drawing 849] | – | – | – | – | Geometric Mean MIC values, E. coli ATCC 25922 (E. coli ATCC 25922): 1.6 µg/mL; Geometric Mean MIC values, E. coli efflux parent (E. coli efflux parent): 1 µg/mL; Geometric Mean MIC values, E. coli Δefflux [3]: 1 µg/mL; Geometric Mean MIC values, P. aeruginosa ATCC 27853 (P. aeruginosa ATCC 27853; Table 1, geometric mean): 0.71 µg/mL; Geometric Mean MIC values, P. aeruginosa efflux parent ([1]; Table 1, geometric mean): 1 µg/mL; Geometric Mean MIC values, P. aeruginosa Δefflux [2, 7]: 0.5 µg/mL; IC50 (translation; Table 1): 14 nM
22 | NC[C@@H]1O[C@H](O[C@H]2[C@@H](O)[C@H](O[C@@H]3[C@@H](O)[C@H](N)C[C@H](N)[C@H]3O[C@H]3O[C@H](CN)[C@@H](O)[C@H](O)[C@H]3N)O[C@@H]2CO)[C@H](N)[C@@H](O)[C@@H]1O [drawing 881, neomycin, reference compound] | 1 | 6.8 | 2.2 | 7.3 | –

Reference: US11414450B1, “Aminoglycosides and uses thereof” (REVAGENIX, INC., priority 2017, dated 2022)
